This is an account of results in US20250152564A1, “PROPYLENE KETONE-CONTAINING BIOINHIBITOR, PREPARATION METHOD THEREFOR, AND USE THEREOF” (SHANGHAI HANSOH BIOMEDICAL CO., LTD., priority 2022, published 2025).

One assay concerns the target FGFR2 V564F (Homo sapiens (Human), UniProt P21802, V564F). In words: TR-FRET kinase inhibition assay, FGFR2 V564F. The settings on record: ATP Km concentration (20 μM). It counts as biochemical. The protocol:
(§1) To measure the IC50 values of the compounds against FGFR1, FGFR2, FGFR3, FGFR4, and FGFR2 V564F at ATP Km concentrations by TR-FRET method.
(§2) TR-FRET (time-resolved fluorescence resonance energy transfer) method was used to detect the inhibitory activity of the compounds on FGFR1, FGFR2, FGFR3, FGFR4, and FGFR2 V564F kinase region fragments. The highest detection concentration of the compounds in 5 kinase experiments was 1000 nM, which was diluted in 3 folds, with a total of 11 concentrations (1000 nM to 0.017 nM). A kinase buffer (50 mM HEPES pH 7.5, 1 mM EGTA, 10 mM MgCl2, 2 mM DTT, and 0.01% Tween-20) was used to prepare 4× enzyme solution, 4× compound solutions diluted in gradient, and a 2×ATP/Peptide substrate solution. To a 384-well plate, 2.5 μL of enzyme solution and 2.5 μL of diluted […] compound solution were added, and 5 μL of 2×ATP/Peptide substrate solution was then added. After reacting at room temperature for 60 minutes for FGFR1, FGFR2, FGFR3, and FGFR2 V564F kinases, and 120 minutes for FGFR4 kinase, 10 μL of a 2× termination and detection mixed liquid prepared with 1×LANCE detection buffer with an EDTA concentration of 20 mM and a Europium-anti-phosphotyrosine (PT66) concentration of 2 nM was added to each well of the plate. After reacting at room temperature for 60 minutes for FGFR1, FGFR2, FGFR3, and FGFR4, and 30 minutes for FGFR2 V564F, the fluorescence signal value in each well of the plate was measured by a microplate reader.
(§3) 1) Inhibition rate (%): Calculation was performed on the raw data (665 nm/620 nm reading ratio) according to the following formula to obtain the inhibition rate. Inhibition rate %=[(mean value in positive control well−value in sample well)/(mean value in positive control well−mean value in negative control well)]×100, wherein the positive control well was a reaction well without a compound […], and the negative control well was a reaction wells without an enzyme.
(§4) 2) Curve fitting: Log(inhibitor) vs. response—Variable slope (four parameters) in GraphPad Prism 6 was used for fitting equation analysis of the compound concentration and the corresponding inhibition rate, and the curve was fitted to obtain the IC50 values of the compounds.
For orientation: Time-resolved FRET reads energy transfer from a long-lived donor to a nearby acceptor.

The next assay addresses FGFR2 (Homo sapiens (Human), UniProt P21802). The assay is described as follows: TR-FRET kinase inhibition assay, FGFR2. The format is biochemical. The settings on record: ATP Km concentration (30 μM). The method, then: as §1, §2, §3, §4
Assay [1] deals with BaF3 FGFR2-BICC1 V564F cells. The assay is described as follows: CellTiter-Glo cell proliferation inhibition, BaF3 FGFR2-BICC1 V564F. It counts as cell-based. The settings on record: Mus musculus, 72 h, read-out: BaF3 FGFR2-BICC1 V564F inhibitory activity IC50. The protocol: To evaluate inhibitory effects of the compounds on the proliferation of NCI-H716, SNU-16 and BaF3-FGFR2-BICC1 V564F cells by cell proliferation inhibition experiments.
CellTiter-Glo method was used to detect inhibitory effects of the compounds on the proliferation of NCI-H716, SNU-16 and BaF3 FGFR2-BICC1 V564F cells. The highest detection concentration of the compounds was 1000 nM, which was diluted in 3 folds, with a total of 9 concentrations (1000 nM to 0.15 nM). After the cells were plated at an appropriate density, compounds were added the next day and incubated for 72 h before detection using the […] detection kit.
1) Inhibition rate (%): Inhibition rate %=[(mean value in positive control well−value in sample well)/(mean value in positive control well−mean value in negative control well)]×100, wherein the positive control well was a reaction well without a compound […], and the negative control well was a reaction wells without an enzyme.
as §4
Background: ATP-based viability assays read luminescence as a measure of living cells.

One may read the IC50 as the concentration at which inhibition is half-maximal.

Sequence of FGFR2 (P21802 481-770): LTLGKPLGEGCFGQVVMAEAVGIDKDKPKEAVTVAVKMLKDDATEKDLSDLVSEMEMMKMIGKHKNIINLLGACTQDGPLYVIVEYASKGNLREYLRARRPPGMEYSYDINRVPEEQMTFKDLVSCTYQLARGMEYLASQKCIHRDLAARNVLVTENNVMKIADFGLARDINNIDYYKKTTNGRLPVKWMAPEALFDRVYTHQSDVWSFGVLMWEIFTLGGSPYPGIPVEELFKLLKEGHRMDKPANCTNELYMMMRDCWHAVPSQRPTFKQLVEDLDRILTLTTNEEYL
Sequence of FGFR2 V564F (P21802 481-770 V564F): as the sequence (P21802 481-770) above, with V84F counted along it

On FGFR2 V564F, `C=CC(=O)N1CC[C@H](n2nc(C#Cc3cc4ncn(C5CC5)c4cc3F)c3c(N)ncc(C)c32)C1` [Example 51, (S)-1-(3-(4-amino-3-((1-cyclopropyl-6-fluoro-1H-benzo[d]imidazol-5-yl)ethynyl)-7-methyl-1H-pyrazolo[4,3-c]pyridin-1-yl)pyrrolidin-1-yl)prop-2-en-1-one] showed an IC50 of 3.3 nM.

In the case of `C=CC(=O)N1CC[C@H](n2nc(C#Cc3ccc4c(c3)ncn4CC)c3c(N)ncc(C(=O)C(C)C)c32)C1` [Example 59], the half-inhibitory concentration (IC50) at FGFR2 is 3.4 nM; at FGFR2 V564F, 1.1 nM; in assay [1] it was 4 nM.

`C=CC(=O)N1CC[C@H](n2nc(C#Cc3cc4ncn(C5CC5)c4cc3F)c3c(N)ncc(C4CC4)c32)C1` [Example 52, (S)-1-(3-(4-amino-7-cyclopropyl-3-((1-cyclopropyl-6-fluoro-1H-benzo[d]imidazol-5-yl)alkynyl)-1H-pyrazolo[4,3-c]pyridin-1-yl)pyrrolidin-1-yl)prop-2-en-1-one] had an IC50 at FGFR2 V564F of 1.8 nM. In the case of `C=CC(=O)N1CC[C@H](n2nc(C#Cc3cc4ncn(CC)c4cc3F)c3c(N)ncc(-c4cscn4)c32)C1` [Example 62, (S)-1-(3-(4-amino-3-((1-ethyl-6-fluoro-1H-benzo[d]imidazol-5-yl)ethynyl)-7-(thiazol-4-yl)-1H-pyrazolo[4,3-c]pyridin-1-yl)pyrrolidin-1-yl)prop-2-en-1-one], the IC50 stood at 2.4 nM against FGFR2 and 1.2 nM on FGFR2 V564F. Take `C=CC(=O)N1CC[C@H](n2nc(C#Cc3cc4ncn(C)c4cc3F)c3c(N)nccc32)C1` [A, reference compound]: the values for the half-inhibitory concentration (IC50) (on FGFR2; on FGFR2 V564F; in assay [1]) were 12.8 nM, 6.1 nM and 7.4 nM, respectively. In turn, `C=CC(=O)N1CC[C@H](n2nc(C#Cc3ccc4c(c3)ncn4C3CC3)c3c(N)ncc(-c4ccn(C)n4)c32)C1` [Example 42, (S)-1-(3-(4-amino-3-((1-cyclopropyl-1H-benzo[d]imidazol-5-yl)ethynyl)-7-(1-methyl-1H-pyrazol-3-yl)-1H-pyrazolo[4,3-c]pyridin-1-yl)pyrrolidine-1-methyl)prop-2-en-1-one] displayed a half-inhibitory concentration (IC50) against FGFR2 V564F of 3.9 nM. Turning to `C=CC(=O)N1CC[C@H](n2nc(C#Cc3ccc4oc(C5CC5)nc4c3)c3c(N)ncnc32)C1` [B, reference compound], the values for the IC50 (at FGFR2 V564F; in assay [1]) were 18.4 nM and 11.5 nM, respectively. In the case of `C=CC(=O)N1CC[C@H](n2nc(C#Cc3cc4ncn(C5CC5)c4cc3Cl)c3c(N)ncc(-c4ccn(C)n4)c32)C1` [Example 43, (S)-1-(3-(4-amino-3-((6-chloro-1-cyclopropyl-1H-benzo[d]imidazol-5-yl)ethynyl)-7-(1-methyl-1H-pyrazol-3-yl)-1H-pyrazolo[4,3-c]pyridin-1-yl)pyrrolidin-1-yl)prop-2-en-1-one], inhibition on FGFR2 V564F was half-maximal at 1.1 nM (IC50). For the compound `C=CC(=O)N1CC[C@H](n2nc(C#Cc3cc4ncn(C5CC5)c4cc3F)c3c(N)ncc(C(=O)C(C)C)c32)C1` [Example 50], the IC50 at FGFR2 amounted to 2.6 nM; against FGFR2 V564F it was 1 nM; in assay [1], 2.1 nM. In the case of `C=CC(=O)N1CC[C@H](n2nc(C#Cc3ccc4c(c3)ncn4C3CC3)c3c(N)ncc(C(=O)C(C)C)c32)C1` [Example 40], the half-inhibitory concentration (IC50) against FGFR2 V564F came out at 1.9 nM. Regarding `C=CC(=O)N1CC[C@H](n2nc(C#Cc3ccc4c(c3)ncn4CC)c3c(N)ncc(C(C)=O)c32)C1` [Example 56, (S)-1-(3-(7-acetyl-4-amino-3-((1-ethyl-1H-benzo[d]imidazol-5-yl)ethynyl)-1H-pyrazolo[4,3-c]pyridin-1-yl)pyrrolidine-1-methyl)prop-2-en-1-one], the figures for the 50% inhibitory concentration (IC50) (at FGFR2; at FGFR2 V564F; in assay [1]) were 1.8 nM, 0.7 nM and 3.5 nM, respectively. For `C=CC(=O)N1CC[C@H](n2nc(C#Cc3cc4ncn(C)c4cc3F)c3c(N)ncc(C4CC4)c32)C1` [Example 20, (S)-1-(3-(4-amino-7-cyclopropyl-3-((6-fluoro-1-methyl-1H-benzo[d]imidazol-5-yl)ethynyl)-1H-pyrazolo[4,3-c]pyridin-1-yl)pyrrolidin-1-yl)prop-2-en-1-one], half-maximal inhibition at FGFR2 V564F (IC50) required 2.8 nM. For `C=CC(=O)N1CC[C@H](n2nc(C#Cc3ccc4c(c3)nc(C)n4C3CC3)c3c(N)ncc(C(C)=O)c32)C1` [Example 53, (S)-1-(3-(7-acetyl-4-amino-3-((1-cyclopropyl-2-methyl-1H-benzo[d]imidazol-5-yl)ethynyl)-1H-pyrazolo[4,3-c]pyridin-1-yl)pyrrolidin-1-yl)prop-2-en-1-one], the IC50 was 3.5 nM on FGFR2, 1.9 nM at FGFR2 V564F and 4.9 nM in assay [1]. As for `C=CC(=O)N1CC[C@H](n2nc(C#Cc3cc4ncn(C5CC5)c4cc3Cl)c3c(N)ncc(C(=O)C(C)C)c32)C1` [Example 47], the concentration for half-maximal inhibition (IC50) against FGFR2 V564F turned out to be 1 nM; in assay [1], 0.5 nM. The matching figures for `C=CC(=O)N1CC[C@H](n2nc(C#Cc3cc4ncn(C)c4cc3Cl)c3c(N)ncc(C(C)=O)c32)C1` [Example 67, (S)-1-(3-(7-acetyl-4-amino-3-((6-chloro-1-methyl-1H-benzo[d]imidazol-5-yl)ethynyl)-1H-pyrazolo[4,3-c]pyridin-1-yl)pyrrolidin-1-yl)prop-2-en-1-one]: 1.6 nM and 1.6 nM. Consider `C=CC(=O)N1CC[C@H](n2nc(C#Cc3cc4ncn(C)c4cc3F)c3c(N)ncc(-c4cscn4)c32)C1` [Example 14, 1-[(3S)-3-[4-amino-3-[2-(6-fluoro-1-methyl-benzo[d]imidazol-5-yl)ethynyl]-7-thiazol-4-yl-pyrazolo[4,3-c]pyridin-1-yl]pyrrolidin-1-yl]-2-propen-1-one], for which the half-inhibitory concentration (IC50) against FGFR2 came out at 2.4 nM; at FGFR2 V564F, 1.3 nM.
